The subject of assay [1] is Bacillus subtilis. The assay is described as follows: Minimum inhibitory concentration (MIC) against bacteria on nutrient agar. The format is cell-based. Conditions: 3 days of incubation at 28° C., 60 to 70% relative atmospheric humidity; for MIC: Bacillus subtilis, 72 h. How it is done: The active compounds according to the invention are in each case added, in concentrations of from 0.1 mg/ml to 5000 mg/ml, to a chemically defined nutrient agar. The MIC is determined after 3 days of incubation at 28° C. and 60 to 70% relative atmospheric humidity.

Assay [2] deals with Penicillium brevicaule. Description: Minimum inhibitory concentration (MIC) against fungi on malt extract agar. The format is cell-based. Conditions: 2 weeks of incubation at 28° C., 60 to 70% relative atmospheric humidity; for MIC: Penicillium, 336 h. How it is done:
(§1) The active compounds according to the invention are in each case added, in concentrations of from 0.1 mg/l to 5000 mg/l, to an agar which is prepared using malt extract. The MIC is determined after 2 weeks of incubation at 28° C. and 60 to 70% relative atmospheric humidity.

The test system of assay [3] is Aspergillus niger. The description is as above. The format is cell-based. Conditions: 2 weeks of incubation at 28° C., 60 to 70% relative atmospheric humidity; for MIC: Aspergillus niger, 336 h. As for the experimental part:
as §1

Assay [4] deals with Chaetomium globosum. Described as above. The format is cell-based. Conditions: 2 weeks of incubation at 28° C., 60 to 70% relative atmospheric humidity; for MIC: Chaetomium globosum, 336 h. As for the experimental part: as §1
Assay [5] deals with mould fungi (Alternaria tenius, Aspergillus flavus, Aspergillus niger, Aspergillus ustus, Cindosporum herbarum, Paecilomyces variotii, Penicillium citrium …). Description: Test of dispersion coatings for resistance to mould. Conditions: coatings according to recipe A containing 1.5% (based on solids) of compound; even after leaching out and wind tunnel exposure; 2–3 weeks storage. As for the experimental part: To test dispersion coatings for resistance to mould, the following procedure is adopted:
The paint to be tested is applied to both sides of a suitable base. To obtain results which are close to practice, some of the test specimens are leached out with running water (24 h, 20° C.) before the test for mould resistance; others are treated with a current of warm fresh air (7 days, 40° C.).
The samples prepared in this way are then placed on an agar nutrient medium, and both samples and nutrient medium are contaminated with fungal spores. After 2–3 weeks storage (29±1° C., 80–90% rel. atmospheric humidity), the samples are compared.
The coating is considered to be permanently mould-resistant if the sample remains free from fungus or at most a slightly border infestation can be detected.
For the contamination, fungal spores of the following mould fungi are used, which are known as paint destroyers or are frequently encountered on coatings: • Alternaria tenius • Aspergillus flavus • Aspergillus niger • Aspergillus ustus • Cindosporum herbarum • Paecilomyces variotii • Penicillium citrium • Aureobasidium pullulans • Stachybotrys chartarum
Recipe A: Exterior dispersion paint based on Acroal 290 D (styrene acrylate)

≈ marks a conversion by molar mass, not a printed value. Some results are limits rather than exact numbers.

One may read the MIC as the smallest concentration in the dilution series that meets the test's criterion for growth inhibition. A higher MIC goes with a less susceptible organism.

Molecule `C=CCSC1=NCCS1` [CAS No. 3571-74-2, 2-[allylsulfanyl]-4,5-dihydro-1,3-thiazole] came in with an MIC in assay [1] of 200 µg/mL (≈ 1260 µM).

With `Clc1ccc(SC2=NCCCS2)cc1` [CAS No. 10554-28-6, 2-[(4-chlorophenyl)sulfanyl]-5,6-dihydro-4H-1,3-thiazine], the figures for the MIC in assay [2], in assay [3] and in assay [4] were under 200 µg/mL, under 400 µg/mL and under 200 µg/mL, respectively.

On to `Clc1ccccc1SC1=NCCCS1` [CAS No. 55545-14-7, 2-[(2-chlorophenyl)sulfanyl]-5,6-dihydro-4H-1,3-thiazine], for which the minimal inhibitory concentration (MIC) in assay [2], in assay [3] and in assay [4] was under 200 µg/mL each time.

For `c1ccc(SC2=NCCCS2)cc1` [CAS No. 73122-32-4, 2-(phenylsulfanyl)-5,6-dihydro-4H-1,3-thiazine], the minimum inhibitory concentration (MIC) in assay [1] was under 100 µg/mL; in assay [2] it was under 200 µg/mL; in assay [3], under 300 µg/mL; in assay [4] it was under 200 µg/mL.

As to `Clc1cccc(SC2=NCCCS2)c1` [CAS No. 73122-33-5, 2-[(3-chlorophenyl)sulfanyl]-5,6-dihydro4H-1,3-thiazine], the values for the minimal inhibitory concentration (MIC) in assay [2], in assay [3] and in assay [4] were under 200 µg/mL, 200 µg/mL (≈ 820 µM) and under 200 µg/mL, respectively.

On to `Clc1ccc(SC2=NCCCS2)cc1Cl` [CAS No. 73122-34-6, 2-[(3,4-dichlorophenyl)sulfanyl]-5,6-dihydro-4H-1,3-thiazine], for which the results for the minimal inhibitory concentration (MIC) in assay [2], in assay [3] and in assay [4] were under 100 µg/mL, 400 µg/mL (≈ 1440 µM) and under 100 µg/mL, respectively.

`Clc1ccc(SC2=NCCCS2)c(Cl)c1` [CAS No. 73122-35-7, 2-[(2,4-dichlorophenyl)sulfanyl]-5,6-dihydro-4H-1,3-thiazine]: the MIC in assay [1] was under 40 µg/mL.

In turn, `Clc1cc(Cl)cc(SC2=NCCCS2)c1` [CAS No. 73122-37-9, 2-[(3,5-dichlorophenyl)sulfanyl]-5,6-dihydro-4H-1,3-thiazine] yielded a minimal inhibitory concentration (MIC) in assay [1] of 100 µg/mL (≈ 359 µM).

In the case of `Brc1ccc(SC2=NCCCS2)cc1` [CAS No. 73122-41-5, 2-[(4-bromophenyl)sulfanyl]-5,6-dihydro-4H-1,3-thiazine], the values for the minimum inhibitory concentration (MIC) in assay [2], in assay [3] and in assay [4] were under 200 µg/mL, under 300 µg/mL and under 200 µg/mL, respectively.

On to `Fc1ccc(SC2=NCCCS2)cc1` [CAS No. 73122-42-6, 2-[(4-fluorophenyl)sulfanyl]-5,6-dihydro-4H-1,3-thiazine], for which the MIC in assay [2] was under 50 µg/mL; in assay [3], 100 µg/mL (≈ 440 µM); in assay [4] it was under 100 µg/mL.

`Cc1ccc(SC2=NCCCS2)cc1` [CAS No. 73122-44-8, 2-[(4-methylphenyl)sulfanyl]-5,6-dihydro4H-1,3-thiazine]: the results for the MIC in assay [2], in assay [3] and in assay [4] were under 100 µg/mL, under 250 µg/mL and under 200 µg/mL, respectively.

Take `Cc1cccc(SC2=NCCCS2)c1` [CAS No. 73122-45-9, 2-[(3-methylphenyl)sulfanyl]-5,6-dihydro4H-1,3-thiazine]: the MIC in assay [2] is under 100 µg/mL; in assay [3], under 200 µg/mL; in assay [4], under 100 µg/mL.

Consider `Cc1ccccc1SC1=NCCCS1` [CAS No. 73122-46-0, 2-[(2-methylphenyl)sulfanyl]-5,6-dihydro-4H-1,3-thiazine], for which the MIC in assay [2] was 100 µg/mL (≈ 448 µM); in assay [3], 200 µg/mL (≈ 895 µM); in assay [4], under 200 µg/mL.

As for `CC(C)(C)c1ccc(SC2=NCCCS2)cc1` [CAS No. 73122-48-2, 2-[(4-tert-butylphenyl)sulfanyl]-5,6-dihydro-4H-1,3-thiazine], the values for the MIC in assay [2], in assay [3] and in assay [4] were under 100 µg/mL, 100 µg/mL (≈ 377 µM) and under 100 µg/mL, respectively.

In the case of `COc1ccc(SC2=NCCCS2)cc1` [CAS No. 73122-49-3, 2-[(4-methoxyphenyl)sulfanyl]-5,6-dihydro-4H-1,3-thiazine], the MIC in assay [2] is under 300 µg/mL; in assay [3] it was under 400 µg/mL; in assay [4] it was under 400 µg/mL.

Regarding `CN(C)c1ccc(SC2=NCCCS2)cc1` [CAS No. 73122-51-7, 4-(5,6-dihydro-4H-1,3-thiazin-2-ylsulfanyl)-N,N-dimethylaniline], the MIC in assay [2] is 100 µg/mL (≈ 396 µM); in assay [3], 200 µg/mL (≈ 792 µM); in assay [4], under 100 µg/mL.

As to `O=[N+]([O-])c1ccc(SC2=NCCCS2)cc1` [CAS No. 73122-52-8, 2-[(4-nitrophenyl)sulfanyl]-5,6-dihydro-4H-1,3-thiazine], the minimum inhibitory concentration (MIC) in assay [2] is under 200 µg/mL; in assay [3], under 150 µg/mL; in assay [4] it was under 100 µg/mL.

As to `Clc1ccc(SC2=NCCS2)cc1` [CAS No. 103482-92-4, 2-[4-chlorophenylsulfanyl]-4,5-dihydro-1,3-thiazole], the minimal inhibitory concentration (MIC) in assay [2] is 200 µg/mL (≈ 870 µM); in assay [4], under 200 µg/mL.

For `Clc1cccc(SC2=NCCS2)c1` [CAS No. 103482-93-5, 2-[3-chlorophenylsulfanyl]-4,5-dihydro-1,3-thiazole], the MIC is 200 µg/mL (≈ 870 µM) in assay [2] and under 200 µg/mL in assay [4].

On to `O=[N+]([O-])c1ccc(SC2=NCCS2)cc1` [CAS No. 103482-99-1, 2-[4-nitrophenylsulfanyl]-4,5-dihydro-1,3-thiazole], for which the MIC in assay [2] and in assay [4] was under 200 µg/mL throughout.

As to `COC(=O)C1CSC(SC(C)C)=N1` (stereo not drawn) [Example 8], in assay [1], the “Minimum inhibitory concentration, Bacillus subtilis” value is under 200 ppm.

Regarding `COC(=O)C1CSC(Sc2cccc(Cl)c2)=N1` (stereo not drawn) [Example 18], in assay [4], the “Minimum inhibitory concentration, Chaetomium globosum” value was determined as 200 ppm.

As for `c1ccc(CSC2=NCCCS2)cc1` [Example 22], in assay [1], the “Minimum inhibitory concentration, Bacillus subtilis” value is 100 ppm.

Turning to `COc1cccc(SC2=NCCCS2)c1` [Example 25], the “Mould resistance of coating” value in assay [5] is recorded as “mould-resistant”.

On to `COc1ccccc1SC1=NCCCS1` [Example 26], for which the “Minimum inhibitory concentration, Penicillium brevicaule” value in assay [2] is listed as 100 ppm. Also, the “Minimum inhibitory concentration, Chaetomium globosum” value in assay [4] was found to be 200 ppm.

For `COc1ccccc1SC1=NCCCS1` [Example 36], the “Minimum inhibitory concentration, Penicillium brevicaule” value in assay [2] was determined as 100 ppm. In addition, the “Minimum inhibitory concentration, Aspergillus niger” value in assay [3] turned out to be 100 ppm. Further, in assay [4], the “Minimum inhibitory concentration, Chaetomium globosum” value worked out at 100 ppm.

As to `Cc1cccc(C)c1SC1=NCCCS1` [Example 37], in assay [2], the “Minimum inhibitory concentration, Penicillium brevicaule” value is on record as 400 ppm. In assay [4], the “Minimum inhibitory concentration, Chaetomium globosum” value is under 200 ppm.

As for `Fc1cccc(SC2=NCCCS2)c1` [Example 39], the “Minimum inhibitory concentration, Penicillium brevicaule” value in assay [2] is under 100 ppm. Also, in assay [3], the “Minimum inhibitory concentration, Aspergillus niger” value is 100 ppm. For the same molecule, in assay [4], the “Minimum inhibitory concentration, Chaetomium globosum” value is recorded as under 100 ppm.

For the molecule `FC(F)(F)c1ccc(SC2=NCCCS2)cc1` [Example 40], in assay [2], the “Minimum inhibitory concentration, Penicillium brevicaule” value is recorded as under 100 ppm. For the same molecule, in assay [3], the “Minimum inhibitory concentration, Aspergillus niger” value is on record as under 250 ppm. The “Minimum inhibitory concentration, Chaetomium globosum” value in assay [4] is listed as under 100 ppm.

For the molecule `Oc1cccc(SC2=NCCCS2)c1` [Example 41], the “Minimum inhibitory concentration, Penicillium brevicaule” value in assay [2] worked out at 100 ppm. Further, the “Minimum inhibitory concentration, Chaetomium globosum” value in assay [4] is recorded as 200 ppm.

As for `COc1ccc(SC2=NCCCS2)cc1OC` [Example 42], the “Minimum inhibitory concentration, Penicillium brevicaule” value in assay [2] is given as under 200 ppm. In assay [3], the “Minimum inhibitory concentration, Aspergillus niger” value stood at 500 ppm. For the same molecule, the “Minimum inhibitory concentration, Chaetomium globosum” value in assay [4] turned out to be 100 ppm.

Regarding `CCc1ccc(SC2=NCCCS2)cc1` [Example 44], the “Minimum inhibitory concentration, Penicillium brevicaule” value in assay [2] was under 100 ppm. Moreover, in assay [3], the “Minimum inhibitory concentration, Aspergillus niger” value is given as 100 ppm. In addition, in assay [4], the “Minimum inhibitory concentration, Chaetomium globosum” value is under 100 ppm.

Consider `c1ccc(Oc2ccc(SC3=NCCCS3)cc2)cc1` [Example 45], for which the “Minimum inhibitory concentration, Penicillium brevicaule” value in assay [2] came out at 100 ppm. Also, in assay [4], the “Minimum inhibitory concentration, Chaetomium globosum” value is under 100 ppm.

In the case of `c1ccc(-c2cccc(SC3=NCCCS3)c2)cc1` [Example 48], the “Minimum inhibitory concentration, Penicillium brevicaule” value in assay [2] came to 200 ppm. The “Minimum inhibitory concentration, Chaetomium globosum” value in assay [4] is recorded as under 100 ppm.

For `c1cc(C2CC2)ccc1SC1=NCCCS1` [Example 49], the “Minimum inhibitory concentration, Penicillium brevicaule” value in assay [2] is reported as under 100 ppm. Further, the “Minimum inhibitory concentration, Aspergillus niger” value in assay [3] came to 100 ppm. In addition, the “Minimum inhibitory concentration, Chaetomium globosum” value in assay [4] is recorded as under 100 ppm.

These data come from patent US7084137B2, “Thiazines and thiazoles as agents for protecting materials” (Bayer Aktiengesellschaft, priority 2001, dated 2006).
